Assay results from ChEMBL document CHEMBL4219160, “The discovery of novel diarylpyri(mi)dine derivatives with high level activity against a wide variety of HIV-1 strains as well as against HIV-2” (Bioorg Med Chem, 2018).

Legend:
[1] = target: Human immunodeficiency virus type 1 reverse transcriptase (Human immunodeficiency virus 1, UniProt Q72547); assay: Inhibition of wild type HIV1 reverse transcriptase using poly (A)/oligo (dT)15 as template/primer assessed as decrease in biotin-dUTP incorporation after 1 hr by ELISA
[2] = test system: Human immunodeficiency virus 2; assay: Antiviral activity against HIV2 ROD infected in human MT4 cells assessed as protection against virus-induced cytopathic effect after 5 days by MTT assay; assay type: functional, organism-based; settings: Human immunodeficiency virus 2, ISOLATE ROD, MT4, 120 h
[3] = Cytotoxicity against human MT4 cells assessed as reduction in cell viability after 5 days by MTT assay; assay type: cell-based
[4] = test system: Human immunodeficiency virus 1; assay: Antiviral activity against HIV1 harboring reverse transcriptase L100I mutant infected in human MT4 cells assessed as protection against virus-induced cytopathic effect after 5 days by MTT assay; assay type: functional, organism-based; settings: Human immunodeficiency virus 1, MT4, 120 h
[5] = test system: Human immunodeficiency virus 1; assay: Antiviral activity against HIV1 harboring reverse transcriptase K103N mutant infected in human MT4 cells assessed as protection against virus-induced cytopathic effect after 5 days by MTT assay; assay type: functional, organism-based; settings: Human immunodeficiency virus 1, MT4, 120 h
[6] = test system: Human immunodeficiency virus 1; assay: Antiviral activity against HIV1 harboring reverse transcriptase Y181C mutant infected in human MT4 cells assessed as protection against virus-induced cytopathic effect after 5 days by MTT assay; assay type: functional, organism-based; settings: Human immunodeficiency virus 1, MT4, 120 h
[7] = test system: Human immunodeficiency virus 1; assay: Antiviral activity against HIV1 harboring reverse transcriptase Y188L mutant infected in human MT4 cells assessed as protection against virus-induced cytopathic effect after 5 days by MTT assay; assay type: functional, organism-based; settings: Human immunodeficiency virus 1, MT4, 120 h
[8] = test system: Human immunodeficiency virus 1; assay: Antiviral activity against HIV1 harboring reverse transcriptase E138K mutant infected in human MT4 cells assessed as protection against virus-induced cytopathic effect after 5 days by MTT assay; assay type: functional, organism-based; settings: Human immunodeficiency virus 1, MT4, 120 h
[9] = test system: Human immunodeficiency virus 1; assay: Antiviral activity against HIV1 harboring reverse transcriptase F227L/V106A double mutant infected in human MT4 cells assessed as protection against virus-induced cytopathic effect after 5 days by MTT assay; assay type: functional, organism-based; settings: Human immunodeficiency virus 1, MT4, 120 h
[10] = test system: Human immunodeficiency virus 1; assay: Antiviral activity against HIV1 harboring reverse transcriptase RES056 double mutant infected in human MT4 cells assessed as protection against virus-induced cytopathic effect after 5 days by MTT assay; assay type: functional, organism-based; settings: Human immunodeficiency virus 1, MT4, 120 h
[11] = target: Human immunodeficiency virus type 1 reverse transcriptase (Human immunodeficiency virus 1, UniProt Q72547, K103N/Y181C); assay: Inhibition of HIV1 reverse transcriptase K103N/Y181C double mutant using poly (A)/oligo (dT)15 as template/primer assessed as decrease in biotin-dUTP incorporation after 1 hr by ELISA
[12] = in vitro; settings: human, MT4 cells
Description: Selectivity index, ratio of CC50 for human MT4 cells to EC50 for wild type HIV1 3B infected in human MT4 cells

[13] = test system: Human immunodeficiency virus 1; assay: microbe, parasite or virus in culture; settings: Human immunodeficiency virus 1, 3B, MT4, 120 h
Description: Antiviral activity against wild type HIV1 3B infected in human MT4 cells assessed as protection against virus-induced cytopathic effect after 5 days by MTT assay

Row | SMILES | IC50 [1] | EC50 [2] | CC50 at 120 h [3] | EC50 [4] | EC50 [5] | EC50 [6] | EC50 [7] | EC50 [8] | EC50 [9] | EC50 [10] | IC50 [11] | selectivity ratio [12] | EC50 [13]
1 | Cc1cc(/C=C/C#N)cc(C)c1Oc1cc(NCCN2CCN(C)CC2)nc(Nc2ccc(C#N)cc2)c1 | 2.19 µM | > 7.96 µM | 7.96 µM | 2.02 µM | 0.028 µM | 1.43 µM | > 7.96 µM | 0.77 µM | 5.7 µM | 1.32 µM | 6.24 µM | 321 | 0.0248 µM
2 | C=CCNc1cc(Oc2c(C)cc(/C=C/C#N)cc2C)cc(Nc2ccc(C#N)cc2)n1 | 0.27 µM | > 82.1 µM | 82.1 µM | 0.63 µM | 0.027 µM | 1.09 µM | > 82.1 µM | 0.043 µM | ≥ 57.4 µM | 30.4 µM | 31.3 µM | 8220 | 0.00999 µM
3 | Cc1cc(/C=C/C#N)cc(C)c1Oc1cc(NCCC#N)nc(Nc2ccc(C#N)cc2)n1 | 0.02 µM | 0.32 µM | 1 µM | 0.011 µM | 0.0012 µM | 0.0099 µM | 0.031 µM | 0.0065 µM | 0.19 µM | 0.014 µM | 0.1 µM | 736 | 0.00136 µM
4 | Cc1cc(/C=C/C#N)cc(C)c1Oc1cc(NCCN(C)C)nc(Nc2ccc(C#N)cc2)n1 | 0.01 µM | > 3.04 µM | 3.04 µM | 0.01 µM | 0.0024 µM | 0.009 µM | 0.9 µM | 0.041 µM | 0.31 µM | 0.027 µM | 0.02 µM | 2050 | 0.00148 µM
5 | COCCNc1cc(Oc2c(C)cc(/C=C/C#N)cc2C)nc(Nc2ccc(C#N)cc2)n1 | 0.04 µM | 1.56 µM | 3.19 µM | 0.0093 µM | 0.0017 µM | 0.0094 µM | 0.051 µM | 0.0064 µM | 0.22 µM | 0.042 µM | 0.23 µM | 2040 | 0.00156 µM
6 | C=CCNc1cc(Oc2c(C)cc(/C=C/C#N)cc2C)nc(Nc2ccc(C#N)cc2)n1 | 0.03 µM | > 3.05 µM | 3.05 µM | 0.021 µM | 0.0048 µM | 0.013 µM | 0.056 µM | 0.0044 µM | 0.53 µM | 0.044 µM | 0.19 µM | 2000 | 0.00152 µM
7 | Cc1cc(/C=C/C#N)cc(C)c1Oc1cc(NCCN2CCOCC2)nc(Nc2ccc(C#N)cc2)c1 | 0.74 µM | > 42 µM | 43.2 µM | 0.24 µM | 0.0017 µM | 0.22 µM | > 43.2 µM | 0.077 µM | 4.43 µM | 0.43 µM | 6.27 µM | 25600 | 0.00168 µM
8 | Cc1cc(/C=C/C#N)cc(C)c1Oc1cc(NCCN2CCNCC2)nc(Nc2ccc(C#N)cc2)n1 | 0.44 µM | > 3.65 µM | 3.65 µM | 0.79 µM | 0.031 µM | 0.61 µM | > 3.65 µM | 0.94 µM | > 3.65 µM | 0.77 µM | 1.12 µM | 148 | 0.0247 µM
9 | Cc1cc(/C=C/C#N)cc(C)c1Oc1cc(Cl)nc(Nc2ccc(C#N)cc2)c1 | 0.18 µM | > 312 µM | > 312 µM | 0.71 µM | 0.033 µM | 1.17 µM | > 312 µM | 0.043 µM | > 312 µM | > 312 µM | – | > 39900 | 0.00781 µM
10 | Cc1cc(/C=C/C#N)cc(C)c1Oc1cc(NCC2CCCO2)nc(Nc2ccc(C#N)cc2)n1 (stereo unspecified) | 0.44 µM | > 268 µM | > 268 µM | 2.89 µM | 0.091 µM | 6.97 µM | > 268 µM | 0.15 µM | 172 µM | 44.4 µM | 86.9 µM | > 9240 | 0.029 µM
11 | Cc1cc(/C=C/C#N)cc(C)c1Oc1cc(NC2CC2)nc(Nc2ccc(C#N)cc2)n1 | 0.05 µM | > 3 µM | 3 µM | 0.023 µM | 0.0026 µM | 0.035 µM | 0.11 µM | 0.01 µM | 0.35 µM | 0.058 µM | 0.24 µM | 1120 | 0.00268 µM
12 | Cc1cc(/C=C/C#N)cc(C)c1Oc1cc(NCCCN2CCOCC2)nc(Nc2ccc(C#N)cc2)c1 | 0.97 µM | ≥ 4.72 µM | ≥ 4.72 µM | 0.53 µM | 0.0056 µM | 0.76 µM | ≥ 4.72 µM | 0.11 µM | 5.01 µM | 0.7 µM | 7.8 µM | ≥ 992 | 0.00476 µM
13 | COC(CNc1cc(Oc2c(C)cc(/C=C/C#N)cc2C)nc(Nc2ccc(C#N)cc2)n1)OC | 0.17 µM | – | 3.47 µM | – | – | – | – | – | – | – | – | – | –
14 | Cc1cc(/C=C/C#N)cc(C)c1Oc1cc(Nc2ccc(C#N)cc2)nc(NC2CC2)c1 | 0.35 µM | > 24.8 µM | 24.8 µM | 0.17 µM | 0.008 µM | 0.21 µM | > 24.8 µM | 0.027 µM | 5.35 µM | 2.82 µM | 5.39 µM | 7400 | 0.00335 µM
15 | Cc1cc(/C=C/C#N)cc(C)c1Oc1cc(Cl)nc(Nc2ccc(C#N)cc2)n1 | 0.02 µM | > 4.31 µM | 4.31 µM | 0.0088 µM | 0.0024 µM | 0.011 µM | 0.048 µM | 0.0093 µM | 0.16 µM | 0.044 µM | 0.08 µM | 2560 | 0.00169 µM
16 | COCCNc1cc(Oc2c(C)cc(/C=C/C#N)cc2C)cc(Nc2ccc(C#N)cc2)n1 | 0.92 µM | > 58.2 µM | 58.2 µM | 0.74 µM | 0.028 µM | 1.37 µM | 41.5 µM | 0.057 µM | 22.3 µM | 4.79 µM | 18.1 µM | 9330 | 0.00624 µM
17 | Cc1cc(/C=C/C#N)cc(C)c1Oc1cc(NCC2CCCO2)nc(Nc2ccc(C#N)cc2)c1 (stereo unspecified) | 0.63 µM | > 73.6 µM | 73.6 µM | 2.6 µM | 0.048 µM | 4.54 µM | > 73.6 µM | 0.17 µM | > 73.6 µM | 31.6 µM | 41.2 µM | 2560 | 0.0288 µM
18 | Cc1cc(/C=C/C#N)cc(C)c1Oc1cc(NCCN2CCOCC2)nc(Nc2ccc(C#N)cc2)n1 | 0.14 µM | 1.42 µM | 3.54 µM | 0.01 µM | 0.0017 µM | 0.0072 µM | 0.098 µM | 0.0075 µM | 0.18 µM | 0.021 µM | 0.34 µM | 2310 | 0.00154 µM
19 | Cc1cc(/C=C/C#N)cc(C)c1Oc1cc(NCCN(C)C)nc(Nc2ccc(C#N)cc2)c1 | 0.83 µM | > 4.27 µM | 4.27 µM | 0.19 µM | 0.0027 µM | 0.18 µM | > 4.27 µM | 0.97 µM | > 4.27 µM | 0.23 µM | 2.47 µM | 2240 | 0.00191 µM
20 | O=C1Nc2ccc(Cl)cc2[C@@](C#CC2CC2)(C(F)(F)F)O1 [EFAVIRENZ] | – | – | > 6.34 µM | 0.047 µM | 0.11 µM | 0.006 µM | 0.13 µM | 0.049 µM | 0.12 µM | 0.11 µM | – | – | –
21 | Cc1cc(C#N)cc(C)c1Oc1nc(Nc2ccc(C#N)cc2)nc(N)c1Br [ETRAVIRINE] | – | – | – | 0.01 µM | – | 0.02 µM | 0.021 µM | – | 0.024 µM | 0.026 µM | – | – | –
22 | Cc1ccnc2c1NC(=O)c1cccnc1N2C1CC1 [NEVIRAPINE] | – | – | > 15 µM | 3.25 µM | 10.3 µM | – | – | 0.28 µM | – | > 15 µM | – | – | 0.125 µM
23 | Cc1cn([C@H]2C[C@H](N=[N+]=[N-])[C@@H](CO)O2)c(=O)[nH]c1=O [ZIDOVUDINE] | – | 0.0081 µM | > 7.48 µM | – | – | 0.006 µM | – | 0.018 µM | – | 0.012 µM | – | > 658 | 0.0114 µM
